Assay results taken from patent US20100267796A1, “THERAPEUTIC AGENT FOR IRRITABLE BOWEL SYNDROME” (KYOWA HAKKO KOGYO CO., LTD., priority 2006, published 2010).

Experiments:
[1] = test system: adenosine uptake in HEK293 cells; assay: Adenosine uptake inhibitory activity in HEK293 cells ([3H]adenosine uptake); format: cell-based; details: for activity at 0.05 µM: 50 nmol/L compound, n=2; for activity at 0.5 µM: 500 nmol/L compound
Method: A test was conducted according to the method of Leung et al. [Biochemical Pharmacology, Vol. 70, pp. 355-362 (2005)]. HEK293 cells (ATCC, Registration No. CRL-1537) were subcultured in a Dulbecco's modified Eagle's medium (manufactured by Invitrogen Corporation) containing 10% of fatal calf serum in a CO2 incubator using a poly-L-lysine-coated 10-cm dish (manufactured by Asahi Techno Glass Corporation). The cultured cells were seeded in a poly-L-lysine-coated 24-well plate (manufactured by Asahi Techno Glass Corporation) and cultured until the cells become confluent. […] After incubation at room temperature for 15 minutes, 0.2 mL of a Na^+-free buffer containing 100 nmol/L of [^3H] adenosine (manufactured by GE Health Care Bioscience Corporation) and each compound at each of 50 nmol/L and 500 nmol/L was added to each well. After 1 minute, the reaction solution was removed with an aspirator, and the wells were washed twice with 0.5 mL of ice-cooled PBS (phosphate-buffered saline). Then, 0.5 mL of PBS containing 5% Triton X-100 was added to each well, and the cells were scraped with a scraper. The solution in each well was homogenized by passing through a 20 G injection needle ten times and transferred to a scintillation vial containing 4 mL of clear sol (manufactured by Nacalai Tesque Inc.). Further, the wells were washed with 0.5 mL of PBS containing 5% Triton X-100, and the washing solution was added to the same vial. After sufficient agitation, radioactivity was measured using a liquid scintillation counter (Aloka Co., Ltd., LSC-3500). A relative value to 100% of an uptake of a control was indicated by percentage.

[2] = test system: restraint stress-induced defecation; assay: Action on restraint stress-induced defecation; format: in vivo, male Wistar rats; details: measured 1 hour after stress initiation, rats
Method: An experiment was carried out according to the method of Kishibayashi et al. [Japanese Journal of Pharmacology, Vol. 69, No. 4, pp. 495-502 (1993)]. In the experiment, male Wistar rats aged 6 to 7 weeks (supplied from Charles River Laboratories Japan, Inc.) were used. […] The rats were lightly anesthetized with diethyl ether, and the thoracic trunk and the forelimbs were wrapped with a tape to produce mild stress. One hour after stress initiation, the wet weight of fecal pellets was measured. Each drug solution was orally administered 1 hour before restraint stress. A test compound was suspended at a concentration of 2 mg/mL in an aqueous solution of 0.5 w/v % methyl cellulose 400 cP and orally administered at a volume of 5 mL/kg (at a dose of 10 mg/kg). In a control, an aqueous solution of 0.5 w/v % methyl cellulose 400 cP was administered. Ten rats were used in each group. […] YM060, a serotonin 5-HT3 receptor antagonist [The Journal of Pharmacology and Experimental Therapeutics, Vol. 259, No. 2, pp. 815-819 (1991), Astellas Pharma. Inc., online, internet (URL: […].com/jp/companry/news/2006/pdf/060131.pdf)], which is being applied as a therapeutic agent for irritable bowel syndrome, was administered at a dose of 0.1 mg/kg.

[3] = Homo sapiens, 1 min, [3H]adenosine uptake relative to 100% of control, HEK293 cells
[4] = 10 mg/kg p.o. 1 hour before restraint stress, n=10, control of each sub-table 1.06-1.71 g
[5] = 300 mg/kg p.o. 1 hour before restraint stress

Row | SMILES | activity at 0.05 µM [1, 3] [%] | activity at 0.5 µM [1, 3] [%] | Wet weight of fecal pellets [2, 4] [g] | further results
1 | CC(O)(C(=O)Nc1ccc(F)c2c1C(=O)c1sccc1CS2(=O)=O)C(F)(F)F (stereo not shown) [Compound 3-1] | 96 | 63 | 0.41 ± 0.16 | –
2 | CCC(O)(CC)C(=O)Nc1cccc2c1C(=O)c1sccc1CS2(=O)=O [Compound 1-4, 5,5-Dioxo-9-(2-ethyl-2-hydroxybutanoylamino)-4,10-dihydrothieno[3,2-c][1]benzothiepin-10-one] | 73 | 34 | 0.44 ± 0.19 | –
3 | COc1cc(C(=O)OCCCN2CCCN(CCCOC(=O)c3cc(OC)c(OC)c(OC)c3)CC2)cc(OC)c1OC [Dilazep, reference compound] | – | – | – | Wet weight of fecal pellets [2, 5]: 0.84 ± 0.17 g
4 | CCOC(=O)Nc1cccc2c1C(=O)c1sccc1CS2(=O)=O [Compound 1-6] | 89 | 68 | 0.31 ± 0.06 | –
5 | CC(=O)C(C)(C)C(=O)Nc1cccc2c1C(=O)c1sccc1CS2(=O)=O [Compound 1-10, 5,5-Dioxo-9-(2,2-dimethyl-3-oxobutanoylamino)-4,0-dihydrothieno[3,2-c][1]benzothiepin-10-one] | 94 | 63 | – | –
6 | Cc1ccc(NC(=O)C(C)(O)C(F)(F)F)c2c1S(=O)(=O)Cc1ccsc1C2=O (stereo not shown) [Compound 3-4] | 71 | 41 | 0.67 ± 0.19 | –
7 | O=C(Nc1cccc2c1C(=O)c1sccc1CS2(=O)=O)c1cc(Cl)ccc1O [Compound 1-7] | 74 | 35 | 0.59 ± 0.12 | –
8 | O=[N+]([O-])c1ccc(CSc2ncnc3c2ncn3C2OC(CO)C(O)C2O)cc1 (stereo not shown) [Nitrobenzylthioinosine, S6-(4-nitrobenzyl)mercaptopurine riboside, reference compound] | – | 4 | – | adenosine uptake in HEK293 cells (in words) ([1]; 100 nmol/L, concentration at which only ENT-1 is inhibited): almost completely inhibited; activity at 0.1 µM ([1]; Homo sapiens, 1 min, 100 nmol/L compound, [3H]adenosine uptake relative to 100% of control, HEK293 cells): 8%
9 | NC(=O)C1CN(CCCCC(c2ccc(F)cc2)c2ccc(F)cc2)CCN1CC(=O)Nc1c(Cl)cc(N)cc1Cl (stereo not shown) [Draflazine, reference compound] | – | – | – | Wet weight of fecal pellets ([2]; 100 mg/kg p.o. 1 hour before restraint stress, control 1.06 ± 0.11 g): 0.43 ± 0.13 g
10 | O=C1c2sccc2CS(=O)(=O)c2cccc(OCc3ccccc3)c21 [Compound 6-2, 9-Benzyloxy-5,5-dioxo-4,10-dihydrothieno[3,2-c][1]benzothiepin-10-one] | 94 | 73 | – | –
11 | OCCN(CCO)c1nc(N2CCCCC2)c2nc(N(CCO)CCO)nc(N3CCCCC3)c2n1 [Dipyridamole, reference compound] | – | – | – | Wet weight of fecal pellets [2, 5]: 0.59 ± 0.15 g
12 | COc1ccccc1CNc1cccc2c1C(=O)c1sccc1CS2(=O)=O [Compound 5-4, 5,5-Dioxo-9-(2-methoxybenzylamino)-4,10-dihydrothieno[3,2-c][1]benzothiepin-10-one] | 72 | 42 | – | –
13 | O=C(CC(O)(C(F)(F)F)C(F)(F)F)Nc1cccc2c1C(=O)c1sccc1CS2(=O)=O [Compound 1-2] | 39 | 17 | 0.78 ± 0.25 | –
14 | CCOc1cc2nc(N3CCOCC3)nc(N3CCC(n4c(=O)c5cc(C)ccc5n(C)c4=O)CC3)c2cc1OCC [KF24345, reference compound] | – | – | 0.48 ± 0.14 | –
15 | Cc1cc(C(=O)Nc2cccc3c2C(=O)c2sccc2CS3(=O)=O)[nH]n1 [Compound 1-9, 5,5-Dioxo-9-[(5-methylpyrazol-3-ylcarbonyl)amino]-4,10-dihydrothieno[3,2-c][1]benzothiepin-10-one] | 62 | 26 | 0.39 ± 0.18 | –
16 | CCOC(=O)CNc1cccc2c1C(=O)c1sccc1CS2(=O)=O [Compound 5-5, 5,5-Dioxo-9-ethoxycarbonylmethylamino-4,10-dihydrothieno[3,2-c][1]benzothiepin-10-one] | 98 | 68 | – | –
17 | CC(O)(C(=O)Nc1ccc(Cl)c2c1C(=O)c1sccc1CS2(=O)=O)C(F)(F)F (stereo not shown) [Compound 3-2] | – | – | 0.53 ± 0.14 | –
18 | CC(C)(C)C(=O)Nc1cccc2c1C(=O)c1sccc1CS2(=O)=O [Compound 1-5] | 90 | 55 | 0.97 ± 0.16 | –
19 | CCOC(=O)C(C)Nc1cccc2c1C(=O)c1sccc1CS2(=O)=O (stereo not shown) [Compound 5-6, 5,5-Dioxo-9-[1-(ethoxycarbonyl)ethylamino]-4,10-dihydrothieno[3,2-c][1]benzothiepin-10-one] | 80 | 50 | – | –
20 | O=C1c2sccc2CS(=O)(=O)c2cccc(Nc3cc(Cl)ccc3O)c21 [Compound 5-2, 9-(5-Chloro-2-hydroxyphenylamino)-5,5-dioxo-4,10-dihydrothieno[3,2-c][1]benzothiepin-10-one] | 80 | 44 | 0.46 ± 0.18 | –
21 | Cn1cc(C(=O)[C@@H]2CCc3nc[nH]c3C2)c2ccccc21 [YM060, reference compound] | – | – | – | Wet weight of fecal pellets ([2]; 0.1 mg/kg 1 hour before restraint stress, control 1.24 ± 0.23 g): 0.43 ± 0.11 g
22 | O=C1c2sccc2CS(=O)(=O)c2cccc(SCc3ccccc3)c21 [Compound 6-1, 9-Benzylthio-5,5-dioxo-4,10-dihydrothieno[3,2-c][1]benzothiepin-10-one] | 75 | 39 | – | –
23 | O=C1c2sccc2CS(=O)(=O)c2cccc(NC(=O)C(O)C(F)(F)F)c21 (stereo not shown) [Compound 1-11, 5,5-Dioxo-9-(2-hydroxy-3,3,3-trifluoropropanoylamino)-4,10-dihydrothieno[3,2-c][1]benzothiepin-10-one] | 82 | 46 | – | –
24 | O=C(Nc1cccc2c1C(=O)c1sccc1CS2(=O)=O)c1ccco1 [Compound 1-8] | 79 | 44 | 0.66 ± 0.12 | –
25 | O=C1c2sccc2CS(=O)(=O)c2cccc(Nc3ccccc3)c21 [Compound 5-1, 5,5-Dioxo-9-phenylamino-4,10-dihydrothieno[3,2-c][1]benzothiepin-10-one] | 91 | 60 | 0.36 ± 0.16 | –
26 | COC(=O)C(Cc1ccccc1)Nc1cccc2c1C(=O)c1sccc1CS2(=O)=O (stereo not shown) [Compound 5-8, 5,5-Dioxo-9-{[1-(methoxycarbonyl)-2-phenylethyl]amino}-4,10-dihydrothieno[3,2-c][1]benzothiepin-10-one] | 92 | 69 | – | –
27 | COC(=O)C(CC(C)C)Nc1cccc2c1C(=O)c1sccc1CS2(=O)=O (stereo not shown) [Compound 5-7, 5,5-Dioxo-9-{[1-(methoxycarbonyl)-3-methylbutyl]amino}-4,10-dihydrothieno[3,2-c][1]benzothiepin-10-one] | 67 | 30 | – | –
28 | CC(O)(C(=O)Nc1ccc(Br)c2c1C(=O)c1sccc1CS2(=O)=O)C(F)(F)F (stereo not shown) [Compound 3-3, 6-Bromo-5,5-dioxo-9-(3,3,3-trifluoro-2-hydroxy-2-methylpropanoylamino)-4,10-dihydrothieno[3,2-c][1]benzothiepin-10-one] | – | – | 0.81 ± 0.22 | –
29 | O=C1c2sccc2CS(=O)(=O)c2cccc(NCc3ccccc3)c21 [Compound 5-3, 9-Benzylamino-5,5-dioxo-4,10-dihydrothieno[3,2-c][1]benzothiepin-10-one] | 63 | 30 | 0.41 ± 0.17 | –
